Data taken from US8933111B2, “Crystalline form of (2S,4R)-5-biphenyl-4-yl-2-hydroxymethyl-2-methyl-4-[(1H-[1,2,3]triazole-4-carbonyl)-amino]-pentanoic acid 5-methyl-2-oxo-[1,3]dioxol-4-ylmethyl ester” (Theravance Biopharma R&D IP, LLC, priority 2012, dated 2015).

What was measured:
[1] = Thermogravimetric analysis (TGA); format: physicochemical; conditions: heating rate of 10° C. from ambient to 220° C., nitrogen purge
Method: Thermogravimetric analysis (TGA) measurements were performed using a TA Instruments Model Q-50 module equipped with high resolution capability. Data were collected using TA Instruments Thermal Analyst controller and analyzed using TA Instruments Universal Analysis software. A weighed sample was placed onto a platinum pan and scanned with a heating rate of 10° C. from ambient temperature to 220° C. The balance and furnace chambers were purged with nitrogen flow during use.

[2] = Dynamic moisture sorption (DMS) assessment; format: physicochemical
Method: Dynamic moisture sorption (DMS) measurements were performed using a VTI atmospheric microbalance, SGA-100 system (VTI Corp., Hialeah, Fla. 33016). A weighed sample was used and the relative humidity (RH) was set at the ambient value at the start of the analysis. The sample was subjected to an initial drying step (from 45% RH to 5% RH) followed by two cycles of adsorption (5% RH to 90% RH) and desorption (90% RH to 5% RH) experiments. The DMS analysis used a scan rate of 5% RH/step over the full humidity range of 5% (RH) to 90% RH. The DMS run was performed isothermally at 25° C.

temperature until which the TGA trace shows no weight loss [1]: about 200 °C
hygroscopicity (DMS profile) ([2]; 5% RH to 90% RH, two adsorption/desorption cycles, 25° C.): non-hygroscopic
moisture picked up during the adsorption segment ([2]; adsorption from 5% RH to 90% RH, isothermal at 25° C.): less than 0.1 % by weight
solid form after the DMS experiment (PXRD of post-DMS sample) ([2]; after two moisture sorption-desorption cycles): no change in the form
Structure (SMILES): Cc1oc(=O)oc1COC(=O)[C@](C)(CO)C[C@@H](Cc1ccc(-c2ccccc2)cc1)NC(=O)c1c[nH]nn1 [crystalline compound, (2S,4R)-5-biphenyl-4-yl-2-hydroxymethyl-2-methyl-4-[(1H-[1,2,3]triazole-4-carbonyl)-amino]-pentanoic acid 5-methyl-2-oxo-[1,3]dioxol-4-ylmethyl ester]
